Laboratory results: patent US20260116847A1 (priority 2023, published 2026)

Tests used:
[1] = system: tumor-specific antigens (CEA, CA 19/9, CA 125, prostate-specific antigen); conditions: meta-analysis of phase I/II trials, over 400 patients, solid tumors; cited from earlier work
[2] = system: kainic acid-induced status epilepticus model; conditions: mouse study; cited from earlier work
[3] = Thermogravimetric analysis (TGA); format: physicochemical; conditions: 10° C./min; for weight loss (TG): 25° C.-195° C.; for degradation temperature (TG): range 25° C.-320° C.
Method: Thermogravimetric analysis for the crystalline polymorphic form I, II and III was performed using a Mettler Toledo TGA/DSC1 apparatus. The sample was weighed in an aluminum pan closed with an aluminum cover with holes.
[…] […] The degradation occurred above 200° C. The TG analysis proves that the crystalline polymorphic form I of marimastat exists in the anhydrous form.
[…] […] The degradation occurred above 200° C. The TG analysis proves that the crystalline polymorphic form II of marimastat exists in the anhydrous form.
This sample was analyzed by TGA-EGA. The analysis was performed at a temperature of 25° C.-320° C. at a rate of 10° C./min. […] The degradation occurred above 200° C. The TG analysis proves that the crystalline polymorphic form III of marimastat exists in the anhydrous form.

[4] = Solubility tests in water; format: physicochemical; conditions: comparison of forms I, II and III
Method: Solubility tests were performed by dissolving samples of pure forms of marimastat in water.

[5] = Stability studies of solid forms under storage conditions, XRPD; format: physicochemical; conditions: 25° C./100% RH and 40° C./75% RH 7 days; 30°/100 mbar 1 hour; room temperature 1 year; above 150° C.
Method: Stability studies of the amorphous form, pure crystalline polymorphic forms I, II and III and the mixture of the crystalline polymorphic forms I and III were carried out under the following conditions: 25° C./100% RH (relative humidity) and 40° C./75% RH (relative humidity) for 7 days, at 30°/100 mbar for 1 hour, at room temperature for 1 year, and also at elevated temperature (above 150° C.).

[6] = Stability of the forms I, II and III stirred together in various solvents, XRPD; format: physicochemical; conditions: for thermodynamic stability of the form: maceration of the mixture of all three forms in different solvents, room temperature, 4 days; for XRPD form after stirring: 25 °C, 4 d
Excerpt: The remaining 7 solvents gave the initial mixture of three polymorphic forms. Thus, when using the mixture of all three forms for maceration in different solvents, complete disappearance of the form II and the form III, complete disappearance of the form II, or all three forms remaining in the mixture were observed. The complete disappearance of the form I was not observed in any of the experiments.

[7] = Stability of the form II in various solvents at room temperature, XRPD; format: physicochemical; conditions: for XRPD form after stirring: 25 °C, 4 d
Method: The stability of the form II in various solvents at room temperature was tested. Experiments were performed by suspending the form II in 1 ml of solvent and the formed suspension was stirred at room temperature at 25° C. for 4 days. Then, the precipitate was filtered off and the samples were dried at a temperature of 30° C./100 mbar for one hour, followed by XRPD analysis.

[8] = Microscopic examinations / bulk density; format: physicochemical; conditions: comparison of the forms
Method: Microscopic examinations were performed using an optical microscope or electron microscope.

## CNC(=O)[C@@H](NC(=O)[C@H](CC(C)C)[C@H](O)C(=O)NO)C(C)(C)C [Marimastat, (2R,3S)—N-1-((S)-3,3-dimethyl-1-methylamino-1-oxobutan-2-yl)-N-4,3-dihydroxy-2-isobutylsuccinamide]
[1]
  growth indicators of tumor-specific antigens: significantly reduced all four growth indicators of tumor-specific antigens in a dose-dependent manner
[2]
  duration and number of seizures: reduced the duration and number of seizures

## CNC(=O)[C@@H](NC(=O)[C@H](CC(C)C)[C@H](O)C(=O)NO)C(C)(C)C [form III]
[3]
  weight loss (TG): 0.4%
  degradation temperature (TG): above 200 °C
[4]
  rate of dissolution in water: fastest soluble in water
[5]
  stability by XRPD (changes in diffraction lines): stable
[6]
  thermodynamic stability of the form: kinetic forms

## CNC(=O)[C@@H](NC(=O)[C@H](CC(C)C)[C@H](O)C(=O)NO)C(C)(C)C [form II]
[3]
  weight loss (TG): 0.2%
  degradation temperature (TG): above 200 °C
[7]; 2-propanol, 30 mg/mL
  XRPD form after stirring: Form II
[7]; acetonitrile, 10 mg/mL
  XRPD form after stirring: Form I
[7]; butyl acetate, 10 mg/mL
  XRPD form after stirring: Form Il
[7]; ethanol, 10 mg/mL
  XRPD form after stirring: Form II
[7]; methanol, 110 mg/mL
  XRPD form after stirring: Form I
[7]; methylcyclohexane, 10 mg/mL
  XRPD form after stirring: Form II
[7]; methylene chloride, 20 mg/mL
  XRPD form after stirring: Form II
[7]; p-xylene, 20 mg/mL
  XRPD form after stirring: Form II
[7]; water, 30 mg/mL
  XRPD form after stirring: Form II
[8]
  bulk density: highest and comparable bulk density
[5]
  stability by XRPD (changes in diffraction lines): stable
[6]
  thermodynamic stability of the form: kinetic forms

## CNC(=O)[C@@H](NC(=O)[C@H](CC(C)C)[C@H](O)C(=O)NO)C(C)(C)C [form I]
[3]
  weight loss (TG): 0.3%
  degradation temperature (TG): above 200 °C
[4]
  rate of dissolution in water: dissolves the slowest
[7]; form II stirred in solvents, 25° C., 4 days
  thermodynamic stability of the form: greatest thermodynamic stability
[8]
  bulk density: highest and comparable bulk density
[5]
  stability by XRPD (changes in diffraction lines): stable
[6]
  thermodynamic stability of the form: most thermodynamically stable

## CNC(=O)[C@@H](NC(=O)[C@H](CC(C)C)[C@H](O)C(=O)NO)C(C)(C)C [mixture of the forms I and III]
[5]
  stability by XRPD (changes in diffraction lines): stable

## CNC(=O)[C@@H](NC(=O)[C@H](CC(C)C)[C@H](O)C(=O)NO)C(C)(C)C [mixture of three polymorphic forms]
[6]; 2-propanol, 30 mg/mL
  XRPD form after stirring: Form I + Form III
[6]; acetone, 10 mg/mL
  XRPD form after stirring: Form I
[6]; acetonitrile, 10 mg/mL
  XRPD form after stirring: Form I
[6]; butyl acetate, 10 mg/mL
  XRPD form after stirring: Form I + Form II + Form III
[6]; dimethoxyethane, 10 mg/mL
  XRPD form after stirring: Form I
[6]; ethanol, 10 mg/mL
  XRPD form after stirring: Form I
[6]; heptane, 10 mg/mL
  XRPD form after stirring: Form I + Form II + Form III
[6]; methanol, 110 mg/mL
  XRPD form after stirring: Form I
[6]; methyl isobutyl ketone, 10 mg/mL
  XRPD form after stirring: Form I + Form II + Form III
[6]; methyl tert-butyl ether, 10 mg/mL
  XRPD form after stirring: Form I + Form III
[6]; methylcyclohexane, 10 mg/mL
  XRPD form after stirring: Form I + Form II + Form III
[6]; methylene chloride, 10 mg/mL
  XRPD form after stirring: Form I + Form II + Form III
[6]; p-xylene, 10 mg/mL
  XRPD form after stirring: Form I + Form II + Form III
[6]; tetrahydrofuran, 10 mg/mL
  XRPD form after stirring: Form I
[6]; toluene, 10 mg/mL
  XRPD form after stirring: Form I + Form II + Form III
[6]; water, 30 mg/mL
  XRPD form after stirring: Form I + Form III
